Test results taken from PubChem BioAssay AID224 (DTP/NCI, 2004).
“And” between values parts separate entries of the source, which are not always exact repeats. Equal entries are not always repeated. Inconclusive results and toxic doses are left out.

Tested on: P335 leukemia ip, BDF1 mice, survival T/C %
Assay: NCI In Vivo Anticancer Drug Screen. Data for tumor model P335 Leukemia (intraperitoneal) in B6D2F1 (BDF1) mice
Details: endpoint: mean survival time, higher = longer survival
Experimental: The antitumor activity of compounds was measured in mice bearing transplantable tumors. Survival or tumor size were measured and the results are expressed as the measurement made in the treated group (T) divided by the measurement made in the vehicle treated control group (C). The tumor model used in this assay is P335 Leukemia (intraperitoneal) in B6D2F1 (BDF1) mice

[1] = dose: 12.5 mg/kg/injection, schedule: Q01DX Z (sc), vehicle: steriod suspending solution
[2] = dose: 25.0 mg/kg/injection, schedule: Q01DX Z (sc), vehicle: steriod suspending solution
[3] = dose: 50.0 mg/kg/injection, schedule: Q01DX Z (sc), vehicle: steriod suspending solution
[4] = dose: 100.0 mg/kg/injection, schedule: Q01DX Z (sc), vehicle: steriod suspending solution
[5] = dose: 25.0 mg/kg/injection, schedule: Q01DX Z (ip), vehicle: carboxymethylcellulose (CMC)
[6] = dose: 3.75 mg/kg/injection, schedule: Q01DX Z (ip), vehicle: carboxymethylcellulose (CMC)
[7] = dose: 12.5 mg/kg/injection, schedule: Q01DX Z (ip), vehicle: carboxymethylcellulose (CMC)

C[C@]12C=CC(=O)C=C1CC[C@@H]1[C@@H]2C(=O)C[C@@]2(C)[C@H]1CC[C@]2(O)C(=O)CO
T/C [1]: 101 % of control
T/C [2]: 108 % of control
T/C [3]: 104 % of control
T/C [4]: 108 % of control

CN(Cc1cnc2nc(N)nc(N)c2n1)c1c(Cl)cc(C(=O)NC(CCC(=O)O)C(=O)O)cc1Cl (stereo not drawn)
T/C [5]: 104 % of control and 121 % of control

CCN(CC)c1ccc2cc3ccc(=[N+](CC)CC)cc-3oc2c1
T/C (dose: 0.31 mg/kg/injection, schedule: Q01DX Z (ip), vehicle: carboxymethylcellulose (CMC)): 87 % of control
T/C (dose: 0.62 mg/kg/injection, schedule: Q01DX Z (ip), vehicle: carboxymethylcellulose (CMC)): 97 % of control and 98 % of control
T/C (dose: 1.25 mg/kg/injection, schedule: Q01DX Z (ip), vehicle: carboxymethylcellulose (CMC)): 108 % of control and 123 % of control

Nc1nc(=S)c2[nH]cnc2[nH]1
T/C (dose: 0.12 mg/kg/injection, schedule: Q01DX Z (ip), vehicle: carboxymethylcellulose (CMC)): 92 % of control
T/C (dose: 0.25 mg/kg/injection, schedule: Q01DX Z (ip), vehicle: carboxymethylcellulose (CMC)): 95 % of control
T/C (dose: 0.5 mg/kg/injection, schedule: Q01DX Z (ip), vehicle: carboxymethylcellulose (CMC)): 95 % of control
T/C (dose: 1.0 mg/kg/injection, schedule: Q01DX Z (ip), vehicle: carboxymethylcellulose (CMC)): 101 % of control
T/C (dose: 2.0 mg/kg/injection, schedule: Q01DX Z (ip), vehicle: carboxymethylcellulose (CMC)): 95 % of control

CSCS(=O)C[C@H](CO)NC(=O)/C=C/c1c(C)[nH]c(=O)[nH]c1=O (stereo partly drawn)
T/C (dose: 0.12 mg/kg/injection, schedule: Q01DX Z (ip), vehicle: saline): 100 % of control
T/C (dose: 0.25 mg/kg/injection, schedule: Q01DX Z (ip), vehicle: saline): 107 % of control
T/C (dose: 0.5 mg/kg/injection, schedule: Q01DX Z (ip), vehicle: saline): 105 % of control
T/C (dose: 1.0 mg/kg/injection, schedule: Q01DX Z (ip), vehicle: saline): 110 % of control

CS(=O)(=O)OCCCCOS(C)(=O)=O
T/C (dose: 0.2 mg/kg/injection, schedule: Q01DX Z (ip), vehicle: methylcellulose (MC)): 87 % of control
T/C (dose: 0.4 mg/kg/injection, schedule: Q01DX Z (ip), vehicle: methylcellulose (MC)): 100 % of control
T/C (dose: 0.8 mg/kg/injection, schedule: Q01DX Z (ip), vehicle: methylcellulose (MC)): 98 % of control
T/C (dose: 1.6 mg/kg/injection, schedule: Q01DX Z (ip), vehicle: methylcellulose (MC)): 89 % of control and 104 % of control
T/C (dose: 6.4 mg/kg/injection, schedule: Q01DX Z (ip), vehicle: methylcellulose (MC)): 94 % of control
T/C (dose: 12.8 mg/kg/injection, schedule: Q01DX Z (ip), vehicle: methylcellulose (MC)): 94 % of control
T/C (dose: 25.6 mg/kg/injection, schedule: Q01DX Z (ip), vehicle: methylcellulose (MC)): 87 % of control

O=c1[nH]cc(F)c(=O)[nH]1
T/C (dose: 0.78 mg/kg/injection, schedule: Q01DX Z (ip), vehicle: saline): 103 % of control
T/C (dose: 2.34 mg/kg/injection, schedule: Q01DX Z (ip), vehicle: saline): 123 % of control
T/C (dose: 4.68 mg/kg/injection, schedule: Q01DX Z (ip), vehicle: saline): 118 % of control
T/C (dose: 9.35 mg/kg/injection, schedule: Q01DX Z (ip), vehicle: saline): 113 % of control
T/C (dose: 12.5 mg/kg/injection, schedule: Q01DX Z (ip), vehicle: saline): 100 % of control
T/C (dose: 18.7 mg/kg/injection, schedule: Q01DX Z (ip), vehicle: saline): 108 % of control
T/C (dose: 100.0 mg/kg/injection, schedule: Q01DX Z (ip), vehicle: saline): 93 % of control

[I][Hg][CH2]C1COC([CH2][Hg][I])CO1 (stereo not drawn)
T/C [6]: 110 % of control

O=c1cnn(C2OC(CO)C(O)C2O)c(=O)[nH]1 (stereo not drawn)
T/C (dose: 0.98 mg/kg/injection, schedule: Q01DX Z (ip), vehicle: water): 102 % of control
T/C (dose: 1.0 mg/kg/injection, schedule: Q01DX Z (ip), vehicle: water): 95 % of control
T/C (dose: 1.95 mg/kg/injection, schedule: Q01DX Z (ip), vehicle: water): 115 % of control
T/C (dose: 2.0 mg/kg/injection, schedule: Q01DX Z (ip), vehicle: water): 98 % of control
T/C (dose: 3.9 mg/kg/injection, schedule: Q01DX Z (ip), vehicle: water): 105 % of control
T/C (dose: 7.8 mg/kg/injection, schedule: Q01DX Z (ip), vehicle: water): 112 % of control
T/C (dose: 8.0 mg/kg/injection, schedule: Q01DX Z (ip), vehicle: water): 93 % of control
T/C (dose: 15.6 mg/kg/injection, schedule: Q01DX Z (ip), vehicle: water): 152 % of control
T/C (dose: 250.0 mg/kg/injection, schedule: Q01DX Z (ip), vehicle: water): 101 % of control
T/C (dose: 500.0 mg/kg/injection, schedule: Q01DX Z (ip), vehicle: water): 104 % of control
T/C (dose: 1000.0 mg/kg/injection, schedule: Q01DX Z (ip), vehicle: water): 112 % of control

N[C@@H](Cc1ccc(N(CCCl)CCCl)cc1)C(=O)O
T/C (dose: 1.25 mg/kg/injection, schedule: Q01DX Z (ip), vehicle: saline): 168 % of control
T/C (dose: 2.5 mg/kg/injection, schedule: Q01DX Z (ip), vehicle: saline): 169 % of control and 195 % of control
T/C (dose: 5.0 mg/kg/injection, schedule: Q01DX Z (ip), vehicle: saline): 106 % of control

CC(=O)[C@H]1CC[C@H]2[C@@H]3C[C@H](C)C4=CC(=O)CC[C@]4(C)[C@H]3C(=O)C[C@]12C
T/C [1]: 120 % of control
T/C [2]: 115 % of control
T/C [3]: 119 % of control and 124 % of control
T/C [4]: 107 % of control
T/C (dose: 200.0 mg/kg/injection, schedule: Q01DX Z (sc), vehicle: steriod suspending solution): 100 % of control
T/C (dose: 400.0 mg/kg/injection, schedule: Q01DX Z (sc), vehicle: steriod suspending solution): 88 % of control

CS(=O)(=O)OCCCl
T/C (dose: 0.8 mg/kg/injection, schedule: Q01DX Z (ip), vehicle: carboxymethylcellulose (CMC)): 98 % of control
T/C (dose: 1.6 mg/kg/injection, schedule: Q01DX Z (ip), vehicle: carboxymethylcellulose (CMC)): 93 % of control
T/C (dose: 3.1 mg/kg/injection, schedule: Q01DX Z (ip), vehicle: carboxymethylcellulose (CMC)): 102 % of control
T/C (dose: 6.2 mg/kg/injection, schedule: Q01DX Z (ip), vehicle: carboxymethylcellulose (CMC)): 86 % of control

O[C@H](CN1CC1)[C@@H](O)CN1CC1
T/C (dose: 1.8 micrograms/kg/injection, schedule: Q01DX Z (ip), vehicle: carboxymethylcellulose (CMC)): 95 % of control
T/C (dose: 3.7 micrograms/kg/injection, schedule: Q01DX Z (ip), vehicle: carboxymethylcellulose (CMC)): 111 % of control
T/C (dose: 7.5 micrograms/kg/injection, schedule: Q01DX Z (ip), vehicle: carboxymethylcellulose (CMC)): 119 % of control
T/C (dose: 15.0 micrograms/kg/injection, schedule: Q01DX Z (ip), vehicle: carboxymethylcellulose (CMC)): 109 % of control

CC(=O)Nc1ccc2nc3ccc(NC(C)=O)cc3[n+](-c3ccccc3)c2c1
T/C [7]: 98 % of control

C[C@H]1C(=O)O[C@@H]2CCN3CC=C(COC(=O)[C@](C)(O)[C@@]1(C)O)[C@H]23
T/C [6]: 87 % of control
T/C (dose: 7.5 mg/kg/injection, schedule: Q01DX Z (ip), vehicle: carboxymethylcellulose (CMC)): 94 % of control
T/C (dose: 15.0 mg/kg/injection, schedule: Q01DX Z (ip), vehicle: carboxymethylcellulose (CMC)): 91 % of control and 93 % of control
T/C (dose: 30.0 mg/kg/injection, schedule: Q01DX Z (ip), vehicle: carboxymethylcellulose (CMC)): 96 % of control

CN(C)CC(=O)c1ccc(O)c(O)c1
T/C (dose: 15.6 mg/kg/injection, schedule: Q01DX Z (ip), vehicle: saline): 103 % of control
T/C (dose: 31.25 mg/kg/injection, schedule: Q01DX Z (ip), vehicle: saline): 109 % of control
T/C (dose: 62.5 mg/kg/injection, schedule: Q01DX Z (ip), vehicle: saline): 113 % of control
T/C (dose: 125.0 mg/kg/injection, schedule: Q01DX Z (ip), vehicle: saline): 109 % of control and 119 % of control
T/C (dose: 500.0 mg/kg/injection, schedule: Q01DX Z (ip), vehicle: saline): 89 % of control

Nc1ncnc2[nH]ncc12
T/C (dose: 6.25 mg/kg/injection, schedule: Q01DX Z (ip), vehicle: carboxymethylcellulose (CMC)): 89 % of control
T/C [7]: 92 % of control

Cn1cnc([N+](=O)[O-])c1Sc1ncnc2nc[nH]c12
T/C [7]: 89 % of control
T/C [5]: 105 % of control
T/C (dose: 50.0 mg/kg/injection, schedule: Q01DX Z (ip), vehicle: carboxymethylcellulose (CMC)): 115 % of control

O=C(Nc1ccc(C2=NCCCN2)cc1)c1ccc(C(=O)Nc2ccc(C3=NCCCN3)cc2)cc1
T/C (dose: 0.4 mg/kg/injection, schedule: Q01DX Z (ip), vehicle: water): 98 % of control
T/C (dose: 1.6 mg/kg/injection, schedule: Q01DX Z (ip), vehicle: water): 154 % of control
T/C (dose: 3.1 mg/kg/injection, schedule: Q01DX Z (ip), vehicle: water): 207 % of control
